Consider five molecules from paper PMC8224775, “Five Tetramic Acid Derivatives Isolated from the Iranian Fungus Colpoma quercinum CCTU A372” (Biomolecules, 2021).

In brackets after ≈: the same amount, converted by molar mass. Read-outs that look alike come from different tables or passages of the source.

Holding throughout (experiment): Antimicrobial serial dilution assay (MIC)
Holding throughout (type): cell-based

One assay relates to Mucor hiemalis DSM 2656. To be noted: overnight. As for the experimental part:
(§1) Antimicrobial activity was determined by our established protocol, according to Becker et al.. In general, all of the pure compounds were dissolved in MeOH with a concentration of 1 mg/mL. Assessment of the antimicrobial activity was determined using the serial dilution assay method to calculate the minimum inhibitory concentration (MIC). In this method, the compounds were diluted in a range between 67 and 0.5 µg/mL in 96 well-plate and incubated with the test organism overnight. The next day, growth of the test organisms was visually observed, and MIC was determined in the lowest concentration where a clear zone (no growth of test organism) was observed. In our attempt for novel anti-infective compounds, an established standard protocol using various organisms representing a broad spectrum of pathogens of clinical interest, as well as sensitive indicator strains, was used (bacteria: Bacillus subtilis DSM 10, Staphylococcus aureus DSM 346, Acinetobacter baumanii DSM 30008, Chromobacterium violaceum DSM 30191, Escherichia coli DSM 1116 and Pseudomonas aeruginosa PA14; mycobacteria: Mycobacterium smegmatis ATCC 700084 and fungi: Candida albicans DSM 1665, Schizosaccharomyces pombe DSM 70572, Mucor hiemalis DSM 2656, Wickerhamomyces anomala DSM 6766 and Rhodotorula glutinis DSM 10134). Methanol as a solvent to dissolve the pure compounds was used as the negative control. Oxytetracycline, ciprofloxacin, gentamycin, and kanamycin were used as positive controls against bacteria, whereas nystatin was used against fungi. A detailed experimental procedure can be found in the SI.
(§2) Protocol: Antimicrobial Activity Assay
(§3) The assay was conducted as a minimum inhibitory concentration (MIC) assay in 96-well round- bottom microtiter plates using the parameters summarized in Table S1 and as already described in [S1]. Stocks of the test organisms were generated by growing the organisms overnight in 50 mL shaking flasks filled with 25 mL of the growth medium at 140r p m ( media and temperatures see Table S1). If the organisms were well grown the next day, which was checked by the occurrence of an optical density (OD) […] of the suspension (OD600 nm for bacteria, OD548 nm for fungi and M. smegmatis), aliquots of these were stored in 1.5 mL reaction tubes in a freezer at −80 °C for up to 12 months. Upon use, aliquots were unthawed and the OD of the suspension measured and adjusted by diluting with the respective growth medium. OD600 nm was adjusted to 0.01 and OD548 nm to 0.1. Subsequently, 150 μ L of the adj usted suspensions were added to all wells of a 96-well microtiter plate (one test organism per plate). In row A, additional 130 μ L of suspensions plus 20 μ L of the test compounds (1 mg/mL) and the controls (one compound/column) were added. MeOH was used as negative controls, while different positive controls (references) were used for the test organisms (see Table S1). Then, starting from row A, 150 μ L of t he suspension were transferred to the next row, the contents thoroughly mixed, and 150 μ L transferred to the following row. The remaining 150 μ L after row H were discarded. […]
(§4) of the test compounds, ranging from 66.7 μg/mL in row A to 0.52 μ g/mL in row H. The microtiter plates were then incubated overnight on a microplate shaker at 800 rpm at 30 or 37 °C (see Table S1) and were visually evaluated the next day. The MIC is defined as the lowest concentration where no growth of the test organism (clear zone) was observed. A lower MIC thus corresponds to a higher antimicrobial activity of the test compound.
(§5) Table S1: MIC assay experiment parameters test organism strain No growth incubation positive control […]
(§6) Candidaa lbicans DSM1665 MYC3 30 nystatin 1.0mg/ mL
(§7) Schizosaccharomyces DSM70572 MYC3 30 nystatin 1.0mg/ mL
(§8) Mucor hiemalis DSM2656 MYC3 30 nystatin 1.0mg/ mL
(§9) Wickerhamomyces DSM6766 MYC3 30 nystatin 1.0mg/ mL
(§10) Rhodotorula glutinis DSM10134 MYC3 30 nystatin 1.0mg/ mL
(§11) 1 MHB: Müller-Hinton Broth (SN X927.1, CarlRoth GmbH, Karlsruhe, Germany) […]

The subject of assay [1] is Rhodotorula glutinis DSM 10134. To be noted: serial dilution 67 to 0.5 µg/mL, overnight. As for the experimental part: as §1, §2, §3, §4, §5, §6, §7, §8, §9, §10, §11
Assay [2] concerns Acinetobacter baumanii DSM 30008. To be noted: serial dilution 67 to 0.5 µg/mL, overnight. As to the method:
as §1, §2, §3, §4, §5, §6, §7, §8, §9, §10, §11

The next assay deals with Pichia anomala DSM 6766. To be noted: serial dilution 67 to 0.5 µg/mL, overnight. As for the experimental part: as §1, §2, §3, §4, §5, §6, §7, §8, §9, §10, §11
Where [3] appears, read: serial dilution 67 to 0.5 µg/mL.

As to `CC1=CC2CC(C)CCC2C2(C)C(=O)OC(C(=O)O)C(C)C12` (centres unmarked) [compound 3, Colposetin C], the MIC entry (against Mucor hiemalis DSM 2656 (setting [3]); in assay [1]; in assay [2]; against Pichia anomala DSM 6766) was “n.i” throughout.

As to `CCC(C(=O)O)C1C(C)=CC2CC(C)CCC2C1(C)C(O)=C1C(=O)C(C)N(C)C1=O` (centres unmarked) [compound 2, Colposetin B], the MIC was 67 µg/mL (≈ 160 µM) in the assay with Mucor hiemalis DSM 2656 (DSM2656, serial dilution 67 to 0.5 µg/mL, read-out: MIC); “n.i” in assay [1]; “n.i” in assay [2]; “n.i” against Pichia anomala DSM 6766.

On to `CC(C=CCC(C)CCC=C(C)C(=O)C1=C(O)C(C)N(C)C1=O)=CC(C)C(O)C(=O)O` (centres unmarked) [compound 4, Colpomenoic acid A], for which the MIC entry (in the assay on Mucor hiemalis DSM 2656 (setting [3]); in assay [1]; in assay [2]; with Pichia anomala DSM 6766) was “n.i” throughout.

As to `CC(C=CCC(C)C=CC=C(C)C(=O)C1=C(O)C(C)N(C)C1=O)=CC(C)C(O)C(=O)O` (centres unmarked) [compound 5, Colpomenoic acid B], the MIC result (against Mucor hiemalis DSM 2656 (setting [3]); in assay [1]; in assay [2]; against Pichia anomala DSM 6766) was “n.i” each time.

With `CC(=O)OC(C(=O)O)C(C)C1C(C)=CC2CC(C)CCC2C1(C)C(O)=C1C(=O)C(C)N(C)C1=O` (centres unmarked) [compound 1, Colposetin A], the MIC result (against Mucor hiemalis DSM 2656 (setting [3]); in assay [1]; in assay [2]; against Pichia anomala DSM 6766) was “n.i” in each case.

By MIC is commonly meant the least concentration at which growth counts as inhibited.
